Where no end group is shown, it is not given here.
Assays:
[1] = tested on: RHAMMv4 overexpressing cells; assay: podosome formation in RHAMMv4 overexpressing cells (cortactin marker); format: cell-based; conditions: RHAMMv4 overexpression
Excerpt: (§1) To further illustrate the relationship between RHAMM, erk activity and podosome formation in transient stage cells, podosome formation is shown to be inhibited by inhibitors of erk activity. […] Overexpression of RHAMMv4 results in a sustained high production of podosomes, detected by the marker protein cortactin (A). […] Overexpression of RHAMMv4 enhances cell migration into wounds (D) compared to the parent 10T1/2 fibroblast line that produces little RHAMMv4 (E).

MDA231 cells = assay: in vitro invasion of MDA231 cells; format: cell-based, human
[2] = tested on: RHAMMv4 overexpressing cells; assay: cell migration into wounds / wound repair of RHAMMv4 overexpressing cells; format: cell-based
Excerpt: as §1

[3] = tested on: MDA231 human breast cancer cells; assay: cell motility of MDA231 breast cancer cells; format: cell-based
NOD mice = assay: NOD mouse model of type I diabetes mellitus; format: in vivo; conditions: 5 mg/kg i.p. three times a week for 23 weeks
Experimental: There are different colonies of NOD mice and there can be some variability between the colonies. The colony used develops the disease between 15-20 weeks of age and there is a 70-80% incidence of diabetes mellitus. The mice treated were divided into two groups of 10 animals; the first group being treated with P-16 peptide and the other group comprising of the control group, which was treated with saline. Once the NOD mice were 5 weeks old, the P-16 peptide was injected three times a week interperitoneally at a dose of 5 mg/kg for 23 weeks. The untreated mice and five mice from the treated group were sacrificed at 28 weeks of age. The remaining five mice from the treated group were taken off the peptide treatment at 28 weeks of age and were assessed for the disease after 16 weeks.
There are different colonies of NOD mice and there can be some variability between the colonies. The colony used develops the disease between 15-20 weeks of age and there is a 70-80% incidence of diabetes mellitus. The mice treated were divided into three groups of 10 animals; the first two groups being treated with S-3 and S-7 peptides, and the third group comprising of the control group, which was treated with saline. Once the NOD mice were 5 weeks old, the S-3 and S-7 peptides were injected three times a week intraperitoneally at a dose of 0.1 mg/kg for 23 weeks.

ND4 transgenic mice = assay: ND4 transgenic mouse model of multiple sclerosis (demyelination clinical signs); format: in vivo; conditions: 10 mg/kg intraperitoneally three times per week
Experimental: Briefly, transgenic mice (ND 4) bearing 70 copies of the transgene for DM20, a myelin proteolipid protein, were utilized for assignment of scores based upon clinical signs of demyelination. Clinical signs which were assessed included general shaking, seizures, head jerk, hind-limb and tail shiver, unsteadiness, wobbly gait and limp tail. Within each sign score between 0-4 was given: where zero score means absent and score 4 means constant and uncontrollable appearance of the sign of the disease. Experimental groups of mice were divided into 4; each group contained 5 animals: one normal, one ND 4 mouse untreated and three ND 4 mice treated with RHAMM mimetic—P-peptide. Animals were treated three times per week with 10 mg/kg of P-peptide intraperitonealy. Peptide was resuspended in 300 μl of PBS.
The severity of the clinical signs increase until maximum around 6 months with animals dying around 8 to 9 months of age. The clinical signs assessed include general shaking, seizures, head jerk, hind limb and tail shiver, wobbly gait and limp tail. The scale of zero (absence) to four (constant and uncontrollable movements) was used for each of the clinical signs. […]

EAE in SJL/J mice = assay: EAE mouse model for multiple sclerosis; format: in vivo; conditions: 5 mg/kg i.p. daily; failed to reach statistical significance
Experimental: Acute EAE was induced by immunization of 3 months old SJL/J female mice (Jackson Lab.; Bar Harbor, Me.) with the MBP and PTX pertussis toxin. Each animal received a sub-cutaneous injection at tail base of 200 μg MBP in 0.1 ml of CFA and received an intravenous injection of 200 ng of PTX. Pertussis toxin was injected again 48 hours later. Mice (4 animals per group) were treated with one of the following treatments through intraperitoneal injections: P-32 peptide at a dose of 5 mg/kg daily; S-7 peptide at a dose of 0.1 mg/kg daily starting on the day of first immunization. Treatment was stopped at time of sacrifice. Mice were monitored daily from day 7 after immunization for clinical signs of EAE and were scored on a scale of 0 to 5. A score of 0 represented the absence of signs while a score of 5 was given to moribund animals.

[4] = binding to hyaluronic acid (HA)
Excerpt: The present invention provides a method of similar sensitivity but which is cheaper and more reliable. The method is based on using HA binding partners discovered using the techniques described above for detecting RHAMM binding partners. Using a phage display library to bind to biotinylated HA permitted identification of five particular species of HA binding motifs described in SEQ. ID NOS: 6-10. This was accomplished by isolating phage that attached to HA which were further isolated, rescreened twice and recloned. The clones were then bound to biotinylated HA-sepharose beads and only those phage that could be released with unlabeled HA were retrieved, recloned and sequenced. Five clones comprising the sequences identified above were detected. These sequences all bind to HA and are useful for detecting HA in serum and tissues in an assay described below.

excisional skin wound = assay: rat punch biopsy excisional skin wound model; format: in vivo; conditions: local application
[5] = tested on: bleomycin-induced lung fibrosis; assay: bleomycin-induced lung injury / fibrosis model; format: in vivo
Excerpt: As described in more detail below, the RHAMM peptide mimetics prevent these pathological events, particularly recruitment and activation of macrophages, from occurring following bleomycin-induced lung fibrosis (FIG. 32). In particular, the infiltration of inflammatory cells and local responses such as fibrosis is completely absent with treatment. […] Therefore, these reagents should be effective for treating lung diseases that involve recruiting macrophages and inflammatory cells, as well as fibrosis. FIG. 34 illustrates motility of BAL cells four days after injury in response to administration of RHAMM peptides. […] Values represent mean and standard error with three animals studied for each condition and at least 20 cells tracked per animal studied. Increased N-acetyl-β-glucosamimidase activity is a known marker for fibrosis in lung tissue. […] Briefly, bleomycin injury results in an increased glucosamimidase activity (* p<0.01 versus controls and saline animals). […] Values represent mean and standard error with five animals studied for each condition. FIG. 35B illustrates that mRNA of collagen type la in lungs harvested 4 days after injury is reduced in response to administration of HA binding Peptide A. Collagen type la is common indicator of fibrosis in lung tissue injury models as used throughout this invention. […] The data shown are representative of three independent experiments. The ability of HA binding peptides to inhibit fibrosis is further illustrated by histological analysis. FIG. 36 are micrographs from a histological analysis of lung tissue treated with and without HA binding Peptide A after bleomycin injury. Panels (a-c) show tissue after treatment with saline alone, and panels (d-f) show tissues injured by bleomycin treatment.

human fibroblasts = assay: velocity of cell locomotion of human fibroblasts on fibronectin; format: cell-based; conditions: 0.1-50 ng/ml, 16 hrs
Experimental: To quantify the effect of RHAMM sequence (amino acid residues 423-432; 423-432AA) to alter velocity of cell locomotion human fibroblasts were seeded on T-12.5 fibronectin coated flasks using A-MEM supplemented with glucose and 10% FBS. 2.5×10^4 cells were seeded and cells incubated for 4 hrs at 37° C. After incubation time cells were treated with increasing concentrations of RHAMM sequence peptide (423-432 AA, 0.1, 1.0, 5.0, 10 and 50 ng/ml) and cell locomotion was monitored over the period of 16 hrs on a 37° C. using 10× modulation objective (Zeiss, Germany) attached to a Zeiss Axiovert 100 inverted microscope equipped with Hoffman Modulation contrast optical filters (Greenvale, N.Y.). Cell images were captured with a CCD video camera module attached to a Hamamatsu CCD camera controller. Motility was assessed using Northern Exposure 2.9 image analysis software (Empix Imaging, Mississauga, Ontario). Nuclear displacement of 7-10 cells was measured and data were subjected to statistical analysis. Statistically significant (P<0.05) differences between means were assessed by the unpaired Student's T-test method, performed using Microsoft Excel '97 software.

[6] = target: RHAMM binding to fibronectin (Homo sapiens, UniProt P02751); assay: RHAMM binding to fibronectin (ELISA)
Sequence of RHAMM binding to fibronectin (P02751 32-2477): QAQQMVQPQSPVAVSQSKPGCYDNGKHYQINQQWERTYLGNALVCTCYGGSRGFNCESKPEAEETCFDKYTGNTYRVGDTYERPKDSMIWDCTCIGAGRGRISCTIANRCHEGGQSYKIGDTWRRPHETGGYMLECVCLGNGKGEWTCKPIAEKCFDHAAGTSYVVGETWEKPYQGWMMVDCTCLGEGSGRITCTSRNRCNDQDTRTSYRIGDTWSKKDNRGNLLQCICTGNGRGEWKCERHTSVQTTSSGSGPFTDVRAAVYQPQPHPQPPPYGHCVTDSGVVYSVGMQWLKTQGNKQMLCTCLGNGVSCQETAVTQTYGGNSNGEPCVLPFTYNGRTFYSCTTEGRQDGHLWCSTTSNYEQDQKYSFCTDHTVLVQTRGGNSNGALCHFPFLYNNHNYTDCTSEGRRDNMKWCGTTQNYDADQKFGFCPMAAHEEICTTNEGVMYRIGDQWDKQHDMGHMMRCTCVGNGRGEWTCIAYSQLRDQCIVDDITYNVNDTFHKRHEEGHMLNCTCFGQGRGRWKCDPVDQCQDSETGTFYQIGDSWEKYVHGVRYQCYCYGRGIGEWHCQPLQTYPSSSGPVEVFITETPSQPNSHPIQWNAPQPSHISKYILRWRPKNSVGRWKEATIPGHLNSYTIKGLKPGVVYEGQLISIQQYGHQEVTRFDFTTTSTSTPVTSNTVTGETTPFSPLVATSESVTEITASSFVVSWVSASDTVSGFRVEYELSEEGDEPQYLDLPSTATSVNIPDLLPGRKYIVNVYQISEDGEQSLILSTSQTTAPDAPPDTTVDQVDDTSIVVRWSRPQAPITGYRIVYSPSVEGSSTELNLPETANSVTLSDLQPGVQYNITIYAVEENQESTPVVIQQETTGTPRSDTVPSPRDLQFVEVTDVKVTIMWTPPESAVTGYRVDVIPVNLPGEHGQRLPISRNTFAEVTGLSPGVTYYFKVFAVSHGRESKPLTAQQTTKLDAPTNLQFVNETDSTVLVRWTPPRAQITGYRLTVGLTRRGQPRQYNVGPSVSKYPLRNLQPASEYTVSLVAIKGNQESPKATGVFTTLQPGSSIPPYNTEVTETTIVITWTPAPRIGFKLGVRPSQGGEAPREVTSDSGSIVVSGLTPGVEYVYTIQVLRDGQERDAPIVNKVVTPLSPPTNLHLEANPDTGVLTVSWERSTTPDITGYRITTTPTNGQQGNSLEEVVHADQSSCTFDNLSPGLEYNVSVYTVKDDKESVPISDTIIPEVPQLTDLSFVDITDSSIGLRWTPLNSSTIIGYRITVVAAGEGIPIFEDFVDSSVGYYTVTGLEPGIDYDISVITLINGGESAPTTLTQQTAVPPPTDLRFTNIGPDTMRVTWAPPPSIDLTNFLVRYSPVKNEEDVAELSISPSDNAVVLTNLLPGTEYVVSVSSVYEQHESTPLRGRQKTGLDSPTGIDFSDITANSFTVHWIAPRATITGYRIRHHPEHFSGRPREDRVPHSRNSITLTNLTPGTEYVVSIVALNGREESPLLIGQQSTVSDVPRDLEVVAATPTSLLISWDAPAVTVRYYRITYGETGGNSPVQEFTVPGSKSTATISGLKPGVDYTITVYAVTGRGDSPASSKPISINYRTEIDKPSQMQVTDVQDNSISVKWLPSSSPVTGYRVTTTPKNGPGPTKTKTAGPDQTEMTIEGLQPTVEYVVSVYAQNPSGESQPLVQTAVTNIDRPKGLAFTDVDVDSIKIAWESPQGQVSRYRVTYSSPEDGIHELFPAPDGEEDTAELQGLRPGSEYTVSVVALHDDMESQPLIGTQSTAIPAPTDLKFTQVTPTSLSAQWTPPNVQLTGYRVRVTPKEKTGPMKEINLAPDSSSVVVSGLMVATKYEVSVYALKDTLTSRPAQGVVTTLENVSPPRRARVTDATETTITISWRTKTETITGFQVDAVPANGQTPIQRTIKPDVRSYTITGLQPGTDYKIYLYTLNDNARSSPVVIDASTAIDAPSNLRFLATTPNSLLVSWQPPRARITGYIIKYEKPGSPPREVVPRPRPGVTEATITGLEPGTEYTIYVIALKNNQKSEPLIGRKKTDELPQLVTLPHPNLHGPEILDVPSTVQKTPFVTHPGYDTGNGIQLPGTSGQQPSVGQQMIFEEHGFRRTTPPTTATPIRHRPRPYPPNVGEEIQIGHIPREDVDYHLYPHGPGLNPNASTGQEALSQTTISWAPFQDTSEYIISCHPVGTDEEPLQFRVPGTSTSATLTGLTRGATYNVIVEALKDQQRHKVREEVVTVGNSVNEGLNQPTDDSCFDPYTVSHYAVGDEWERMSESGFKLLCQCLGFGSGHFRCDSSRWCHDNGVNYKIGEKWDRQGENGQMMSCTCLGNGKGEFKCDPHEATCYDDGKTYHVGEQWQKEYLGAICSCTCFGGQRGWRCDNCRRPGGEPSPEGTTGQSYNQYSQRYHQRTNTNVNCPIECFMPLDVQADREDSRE
Excerpt: FIG. 21 further illustrates that RHAMM binds to the CS-1 fragment of fibomectin and not to the RGDS sequence which was previously considered to be a critical sequence for fibronectin signaling of matrix protein degradation.

invasive cells = assay: motility of invasive cells treated with RHAMM exon peptides or antibodies (FIG. 16); format: cell-based; conditions: P<0.001 for peptide vs scrambled peptide
Excerpt: This effect is quantified in the graph shown in 16C and is highly significant (P<0.001, student's T test).

LR21 cells = assay: podosome formation in LR21 cells treated with exon 4 peptide (cortactin or CAS); format: cell-based
Excerpt: Podsomome formation was visualized using either fluorescent cortactin or CAS, the latter being a particularly useful marker for podosomes as illustrated by the micrographs in FIG. 17B.

[7] = target: erk1 His-6-tagged fusion protein; assay: peptide competition of erk1 His-6 binding to RHAMM v4 beads; D4 and D5 peptides present together

**Q.** For COc1cccc(-c2cc(=O)c3ccccc3o2)c1N [PD09058], which number of podosomes [1] is on record?
**A.** reduces the number of podosomes

**Q.** What about the “cell invasion in vitro” value (MDA231 cells) of the same molecule?
**A.** blocks cell invasion

**Q.** What about the “wound repair (cell migration into wounds)” value [2] of the same molecule?
**A.** blocks wound repair

**Q.** What about the “cell motility / locomotion” value [3] of the same molecule?
**A.** strongly reduces cellular locomotion

**Q.** With “CSTMMSRSHKTRSHHV [P-peptide, CSTMMSRSHKTRSHHV]” as the molecule, how does the toxicity (NOD mice) read?
**A.** absence of any toxicity

**Q.** And the “toxicological or lethal effects on animals” value (ND4 transgenic mice)?
**A.** without observing toxicological or lethal effects

**Q.** With “KQKIKHVVKLKDENSQLKSEVSKLRCQLAKKK [P-32, specific RHAMM region]” as the molecule, how does the “decrease in mean clinical score” value (EAE in SJL/J mice) read?
**A.** 20%

**Q.** What does the source list for “RGGGGGGGR (Peptide that binds a hyalauronan) [peptide D, reference compound]”?
**A.** binding to HA [4]: does not bind HA; infiltration of macrophages in wounded biopsies (Glucosimimidase activity) (excisional skin wound): does not inhibit macrophage infiltration

**Q.** Which “infiltration of macrophages in wounded biopsies (Glucosimimidase activity)” value (shortened to “infiltration of macrophages”) (excisional skin wound) does the source give for “RGGGRGGGR (Peptide that binds a hyalauronan) [C]” here?
**A.** inhibited the infiltration of macrophages

**Q.** For “RGGGRGGRR (Peptide that binds a hyalauronan) [peptide B]”, which “infiltration of macrophages” value (excisional skin wound) is on record?
**A.** inhibited the infiltration of macrophages

**Q.** Which “increase in collagen type la mRNA in lungs” value ([5]; 4 days after injury) does the source give for “RGGGRGRRR (Peptide that binds a hyalauronan) [Peptide A]” here?
**A.** completely inhibited

**Q.** And the “N-acetyl-β-glucosamimidase activity of BAL cells” value ([5]; 7 days after bleomycin injury)?
**A.** significantly decreased glucosamimidase activity

**Q.** What about the lung histology ([5]; after bleomycin injury) of the same molecule?
**A.** normal lung architecture

**Q.** And the “motility of BAL cells (macrophages)” value ([5]; four days after bleomycin injury, peptide given prior to injury)?
**A.** significantly lower cell locomotion

**Q.** What about the “infiltration of macrophages” value (excisional skin wound) of the same molecule?
**A.** inhibited the infiltration of macrophages

**Q.** With “RHAMM sequence (423-432 AA): RHAMM sequence peptide, amino acid residues 423-432 (SEQ ID NO 24) (KLRSQLVKRKQ; Homo sapien)” as the molecule, how does the “inhibition of migration of human fibroblasts” value (human fibroblasts) read?
**A.** up to 40%

**Q.** What does the source list for “SEQ. ID NO: 15: peptide mimicking RHAMM exon 3, used to raise anti-exon 3 antibodies (KLQATQKDLTESKG; listed as Mus musculus)”?
**A.** binding of RHAMM to fibronectin [6]: able to block the binding of intact RHAMM to fibronectin; motility of invasive cells (invasive cells): block the motility of invasive cells

**Q.** For “SEQ. ID NO: 16: peptide from murine RHAMM exon 4 (VSIEKEKIDEKCETEKLLEYIQEIS; listed as Mus musculus)”, which formation of podosomes (LR21 cells) is on record?
**A.** blocks the formation of podosomes

**Q.** Which reduction of erk1 binding to v4 [7] does the source give for KQKIKHVVKLKDENSQLKSEVSKLRSQLVKRK [D5 peptide of RHAMM] here?
**A.** 90%

**Q.** For QEKYNDTAQSLRDVTAQLESV [D4 peptide of RHAMM], which reduction of erk1 binding to v4 [7] is on record?
**A.** 90%

Source: patent US6911429B2, “Compositions and methods for treating cellular response to injury and other proliferating cell disorders regulated by hyaladherin and hyaluronans” (Transition Therapeutics Inc., priority 1999, dated 2005)
